Assay results published in US11318140B2, “Use of TRPV4 antagonists to ameliorate hydrocephalus and related materials and methods” (Indiana University Research and Technology Corporation, priority 2012, dated 2022).
“Also recorded” adds a separate entry of the source.

What was measured:
Assay type in all cases: in vivo, rat
Wistar Wpk/Wpk rats [1] = experiment: Hydrocephalic cranial/head enlargement in Wpk/Wpk rats; conditions: day 8 through 17
Experimental: (§1) Wistar Wpk/Wpk rats are an orthologous model of human type 3 Meckel Syndrome. Meckel Syndrome is a cilliopathology with both renal cystic and brain pathology. The brain pathology is severe hydrocephalus with hypoplasia of the corpus callosum.
(§2) The inventors treated Wpk/Wpk affected as well as noncystic littermates with either TRPV4 agonist (GSK1016797, 0.003 mg/kg body weight) or antagonist (HC067047, 0.03 mg/kg) from day 8 through 17 and evaluated the cranial enlargement and cerebral manifestations. Both drugs were dissolved in DMSO prior to dilution with normal saline prior to injection (i.p.).
(§3) Wpk/Wpk affected as well as noncystic littermates were treated with TRPV4 antagonist RN-1734 from day 8 through 17 and evaluated the kidney weight and cerebral manifestations (bitemporal head diameter and vertical head dimensions/cranial height). Both drugs were dissolved in DMSO prior to dilution with normal saline prior to injection (i.p.).

[2] = test system: Wpk/Wpk hydrocephalic rats; experiment: Cortical thickness from coronal sections of Wpk/Wpk hydrocephalic rats; conditions: 0.03 mg/kg body weight, day 8-17; measured at day 17; p<0.0001
From the text: as §1
Cortical thickness measured from coronal sections of Wpk/Wpk hydrocephalic rats at day 17. […] This finding is in agreement with the decreased degree of hydrocephalus in the antagonist treated animals and, therefore, have a decreased loss in cerebral cortex.

Wistar Wpk/Wpk rats [3] = experiment: Renal pathology (kidney weight) in Wpk/Wpk rats; conditions: day 8 through 17
Experimental: as §1, §2, §3

[4] = Example 3: i.p., dose not given

SMILES	activity and alertness of treated rats (Wistar Wpk/Wpk rats [1]; 0.03 mg/kg i.p.)	head dimensions, treated affected rats versus normal littermates (Wistar Wpk/Wpk rats [1]; 0.03 mg/kg i.p.)	hydrocephalic enlargement of the cranium/brain (head measurements) (Wistar Wpk/Wpk rats [1]; 0.03 mg/kg i.p., affected Wpk/Wpk rats)	cortical thickness [2]	renal pathology (Wistar Wpk/Wpk rats [3]; Example 2: agonist 0.003 mg/kg, antagonist 0.03 mg/kg, i.p.)	activity and alertness of treated rats (Wistar Wpk/Wpk rats [1]; [4])	head dimensions, treated affected rats versus normal littermates (Wistar Wpk/Wpk rats [1]; [4])	hydrocephalic enlargement of the cranium/brain (bitemporal head diameter, vertical head dimension) (Wistar Wpk/Wpk rats [1]; [4])	renal pathology (kidney weight) (Wistar Wpk/Wpk rats [3]; [4])
Cc1c(C(=O)Nc2cccc(C(F)(F)F)c2)cc(-c2ccccc2)n1CCCN1CCOCC1 [HC067047]	very active and alert like their nonaffected littermates	no difference in head dimensions	almost totally ameliorate; also recorded: significantly less hydrocephalic head measurements	increased cortical thickness	did not affect the renal pathology	–	–	–	–
CC(C)NCCN(C(C)C)S(=O)(=O)c1ccc(Cl)cc1Cl [RN-1734]	–	–	–	–	–	very active and alert like their nonaffected littermates	no difference in head dimensions	almost totally ameliorate	did not affect the renal pathology
